Legend:
S. epidermidis 18972 = test: MBIC/MIC secondary assay (crystal violet biofilm staining / OD600 growth); type: cell-based, Staphylococcus epidermidis; conditions: S. epidermidis 18972, Table 2; for MBIC: lowest concentration inhibiting biofilm formation ≧80%; for MIC: Staphylococcus epidermidis, lowest concentration inhibiting growth ≧80%, read-out: MIC
Method: Assays for detecting and measuring bacterial biofilm formation are known in the art. An example of a biofilm formation assay useful in detecting and characterizing biofilm inhibitor compounds is described in Example 1, infra. Briefly, bacterial cells are inoculated into growth medium in individual wells of a 96-well assay plate in the presence or absence of a compound (known biofilm inhibitor or test compound). After incubation for a specified time, growth medium and non-biofilm bacterial cells are removed from each of the wells. The bacterial cells in any biofilms that are adhered to the surface of a well are fixed by addition of ethanol. The ethanol is removed, and the fixed biofilm bacteria cells are stained with crystal violet (CV). The intensity of CV staining is directly correlated with bacterial biofilm formation and is measured in the wells by reading the optical density at 600 nm (OD600). The difference in biofilm formation between untreated control and treated cultures provides an indication of relative biofilm inhibition activity (anti-biofilm activity). Use of different concentrations of an inhibitor in multiple and otherwise duplicate cultures permits determination of a compound's Minimal Biofilm Inhibitory Concentration (MBIC), which is defined herein as the lowest concentration of a compound that inhibits biofilm formation by at least 80% (i.e., ≧80%) compared to untreated control cultures.
A higher throughput was achieved by formatting the assay for use in flat-bottomed 96-well assay plates (Costar 3590 assay plates, Corning Life Sciences, Lowell, Mass.). The biofilm cultures grew on the bottoms of each well in a surface attached mode. In each assay plate, columns 1 and 12 contained untreated cultures, which served as negative controls (0% biofilm inhibition). Each of the assay wells in columns 2-11 contained a unique small molecule from the Microbiotix Screening Library (MSL) at a final concentration of 100 μM. Assay plates were inoculated with 200 μl/well of a culture of Staphylococcus pidermidis 18972 in 0.5×Tryptic Soy Broth (TSB; Becton Dickinson, Franklin Lakes, N.J.) in which the concentration of glucose was adjusted to 0.25% (w/v). The bacterial inocula were prepared by making a 1:100 dilution of an overnight culture grown in TSB in the media used for the screen. After inoculation, assay plates were sealed with foil tape and incubated at 37° C. for 18-20 hours (h). The optical density at 600 nm (OD600) was measured for each well using a VICTOR2V™ multiplate reader (Perkin Elmer, Waltham, Mass.) in order to quantify overall bacterial growth. The assay plates were processed to remove bacterial growth media and non-biofilm cells from the bottom of each assay well. This was accomplished by using a BioTek ELx405™ plate washer (BioTek Instruments, Inc., Winooski, Vt.). Biofilm bacteria were fixed by addition of 50 μl of 95% ethanol for 30 minutes (min). The ethanol was removed, and the fixed biofilm cultures were stained with 50 μl of 0.06% crystal violet (CV) for 60 min. Excess CV was removed by repeated washes using the BioTek ELx405™ plate washer. The amount of CV bound to each assay well was quantified by measuring OD600 using a VICTOR2V™ plate reader (Perkin Elmer).
A secondary assay provided a quantitative measure of both anti-biofilm activity and antibacterial activity in terms of the Minimal Biofilm Inhibitory Concentration (MBIC) and the Minimal Inhibitory Concentration (MIC), respectively. The MBIC and MIC are defined as the lowest compound concentrations that inhibit biofilm formation and bacterial growth, respectively, by at least 80% (i.e., ≧80%). The MBIC/MIC assay is formatted in a manner that is similar to the Microbroth dilution assays described by the Clinical and Laboratory Standards Institute (CLSI; formerly NCCLS) in protocol M7-A7. The growth conditions were optimized for biofilm growth in 96-well assay plates such that the resulting CV staining was within the linear range of detection. […]

S. aureus ATCC 35556 = test: MBIC/MIC secondary assay; type: cell-based, Staphylococcus aureus; conditions: S. aureus ATCC 35556, Table 2; for MIC: Staphylococcus aureus, ATCC35556, read-out: MIC
[1] = In vitro cytotoxicity assay (CC50), Alamar Blue; type: cell-based; conditions: human, HeLa cells, 10% Fetal Bovine Serum
Method: Validated hits were tested for general cytotoxicity against a mammalian cell line. In this assay, an assay plate was seeded with an immortalized human cell line (HeLa) and exposed to a series of two-fold dilutions of each test compound for 72 hours in standard media containing 10% Fetal Bovine Serum. After exposure to the compounds, the cellular viability was assessed using Alamar Blue™ (AccuMed International, Inc.), an oxidation-reduction indicator that is useful for quantitatively measuring cell-mediated cytotoxicity. Alamar Blue reduction was quantified using fluorescence measurements, and the data were analyzed using a two-parameter curve-fitting program (Assay Explorer, Elsevier MDL, San Rafael, Calif.) to determine the CC50 value, i.e., the compound concentration that decreases cellular viability by 50%. Compounds with CC50/MBIC≧50 were given highest priority. Validated hits that met the criteria for high priority were re-ordered from the original vendor and re-tested.

## COc1cc(/C=C2\SC(=S)N(c3cccc(Cl)c3)C2=O)cc(Br)c1O [MSL-049731, 3-(3-chlorophenyl)-5-(3-bromo-4-hydroxy-5-methoxybenzylidene)-2-thioxothiazolidin-4-one]
S. epidermidis 18972
  MBIC: 25 µM
  MIC: ≥ 100 µM
S. aureus ATCC 35556
  MBIC: 6.25 µM
  MIC: ≥ 100 µM

## CCOc1cc(/C=C2\SC(=S)N(c3ccc(Br)cc3)C2=O)ccc1O [MSL-049293, 3-(4-bromophenyl)-5-(3-ethoxy-4-hydroxybenzylidene)-2-thioxothiazolidin-4-one]
S. epidermidis 18972
  MBIC: 12.5 µM
  MIC: ≥ 100 µM
S. aureus ATCC 35556
  MBIC: 1.5625 µM
  MIC: ≥ 100 µM
[1]
  CC50 at 72 h: ≥ 100 µM

## COc1ccc(C2=C/C(=C/c3ccc(O)c(OC)c3)C(=O)O2)c(OC)c1 [MSL-051097, 3-(4-hydroxy-3-methoxybenzylidene)-5-(2,4-dimethoxyphenyl)furan-2(3H)-one]
S. epidermidis 18972
  MBIC: 25 µM
  MIC: ≥ 100 µM
S. aureus ATCC 35556
  MBIC: 6.25 µM
  MIC: ≥ 100 µM
[1]
  CC50 at 72 h: 29.4 µM

— patent publication US20110098323A1, “INHIBITORS OF BACTERIAL BIOFILM FORMATION” (MICROBIOTIX, INC., priority 2009, published 2011)
